These results are taken from US7750040B2, “Thiophene derivatives” (priority 2004, dated 2010).

Sequence of recombinant human S1P1 receptor (P21453 whole entry): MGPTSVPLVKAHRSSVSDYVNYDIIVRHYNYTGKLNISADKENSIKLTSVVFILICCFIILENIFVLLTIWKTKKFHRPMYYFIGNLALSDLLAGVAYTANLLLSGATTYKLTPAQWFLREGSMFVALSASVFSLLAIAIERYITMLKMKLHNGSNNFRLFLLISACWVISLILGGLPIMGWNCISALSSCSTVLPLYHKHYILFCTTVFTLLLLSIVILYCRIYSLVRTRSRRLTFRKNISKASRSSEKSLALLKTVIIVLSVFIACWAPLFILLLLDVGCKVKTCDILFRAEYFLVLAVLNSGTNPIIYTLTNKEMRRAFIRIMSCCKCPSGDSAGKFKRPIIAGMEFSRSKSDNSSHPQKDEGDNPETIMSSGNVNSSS

The first assay concerns the target recombinant human S1P1 receptor (Homo sapiens, UniProt P21453). Briefly: GTPγS assay to determine EC50 values. It is filed as biochemical. Conditions: 35S-GTPγS binding, membrane preparations of CHO cells expressing recombinant human S1P1 receptor. On the procedure: The pH was 7.4. Test compounds are dissolved and diluted in 100% DMSO and pre-incubated at room temperature for 30 min in 150 μl of the above assay buffer, in the absence of ^35S-GTPγS. After addition of 50 μl of ^35S-GTPγS, the assay is incubated for 1 h at room temperature. […] Membrane-bound ^35S-GTPγS is measured with a TopCount from Packard Biosciences.
Specific binding is determined by subtracting non-specific binding from maximal binding. Maximal binding is the amount of cpm bound to the Multiscreen plate in the presence of 10 μM of S1P. Non-specific binding is the amount of binding in the absence of an agonist in the assay.
What is called EC50 is the midpoint of the concentration-response curve. Take `COc1cc(OCC(C)O)ccc1CNC(=O)c1sc(C)c2c1C[C@@H]1[C@H]2C1(C)C` (mixture of isomers) [Example 24, (1aS,5aR)-1,1,2-trimethyl-1,1a,5,5a-tetrahydro-3-thia-cyclopropa[a]pentalene-4-carboxylic acid 4-((R/S)-2-hydroxy-propoxy)-2-methoxy-benzylamide]: the EC50 amounted to 164 nM. As to `CCc1sc(C(=O)CCc2cc(C)c(OC[C@@H](O)CO)c(C)c2)c2c1[C@@H]1[C@H](C2)C1(C)C` [Example 137, 3-[4-((S)-2,3-Dihydroxy-propoxy)-3,5-dimethyl-phenyl]-1-((1aR,5aS)-2-ethyl-1,1-dimethyl-1,1a,5,5a-tetrahydro-3-thia-cyclopropa[a]pentalen-4-yl)-propan-1-one], the EC50 worked out at 0.6 nM. On the same count and under the same terms, next, `Cc1cc(CNC(=O)c2sc(C)c3c2C[C@@H]2[C@H]3C2(C)C)cc(C)c1OC[C@@H](O)CO` [Example 5, (1aS,5aR)-1,1,2-trimethyl-1,1a,5,5a-tetrahydro-3-thia-cyclopropa[a]pentalene-4-carboxylic acid 4-((S)-2,3-dihydroxy-propoxy)-3,5-dimethyl-benzylamide]: 75 nM. With `COc1cc(OCCF)ccc1CNC(=O)c1sc(C)c2c1C[C@@H]1[C@H]2C1(C)C` [Example 36, (1aS,5aR)-1,1,2-Trimethyl-1,1a,5,5a-tetrahydro-3-thia-cyclopropa[a]pentalene-4-carboxylic acid 4-(2-fluoro-ethoxy)-2-methoxy-benzylamide], the EC50 was found to be 300 nM.

On to `COc1ccccc1CCC(=O)c1sc(C)c2c1C[C@@H]1[C@H]2C1(C)C` [Example 48, 3-(2-methoxy-phenyl)-1-((1aS,5aR)-1,1,2-trimethyl-1,1a,5,5a-tetrahydro-3-thia-cyclopropa[a]penta-len-4-yl)-propan-1-one], for which the EC50 stood at 16 nM. For the compound `COc1cc(OC[C@@H](O)CO)ccc1CCC(=O)c1sc(C)c2c1C[C@@H]1[C@H]2C1(C)C` [Example 49, 3-[4-((S)-2,3-Dihydroxy-propoxy)-2-methoxy-phenyl]-1-((1aS,5aR)-1,1,2-trimethyl-1,1a,5,5a-tetrahydro-3-thia-cyclopropa[a]pentalen-4-yl)-propan-1-one], the EC50 was 2 nM. Take `Cc1cc(CCC(=O)c2sc(C)c3c2C[C@@H]2[C@H]3C2(C)C)cc(Cl)c1OC[C@H](O)CO` [Example 71, 3-[3-Chloro-4-((R)-2,3-dihydroxy-propoxy)-5-methyl-phenyl]-1-((1aS,5aR)-1,1,2-trimethyl-1,1a,5,5a-tetrahydro-3-thia-cyclopropa[a]pentalen-4-yl)-propan-1-one]: the EC50 came to 1 nM.

For `Cc1sc(C(=O)CNc2ccc(CCO)cc2)c2c1[C@H]1[C@@H](C2)C1(C)C` [Example 163, 2-[4-(2-Hydroxy-ethyl)-phenylamino]-1-((1aS,5aR)-1,1,2-trimethyl-1,1a,5,5a-tetrahydro-3-thia-cyclopropa[a]pentalen-4-yl)-ethanone], the EC50 worked out at 3 nM. The same measure, in the same setting: next, `Cc1sc(C(=O)CCc2ccc(OC[C@@H](O)CO)cc2Cl)c2c1[C@H]1[C@@H](C2)C1(C)C` [Example 81, 3-[2-Chloro-4-((S)-2,3-dihydroxy-propoxy)-phenyl]-1-((1aS,5aR)-1,1,2-trimethyl-1,1a,5,5a-tetrahydro-3-thia-cyclopropa[a]pentalen-4-yl)-propan-1-one]: 3 nM. With `Cc1cc(CCC(=O)c2sc(C)c3c2C[C@@H]2[C@H]3C2(C)C)cc(Cl)c1OCC(C)O` (stereo partly drawn) [Example 74, 3-[3-Chloro-4-(2-hydroxy-propoxy)-5-methyl-phenyl]-1-((1aS,5aR)-1,1,2-trimethyl-1,1a,5,5a-tetrahydro-3-thia-cyclopropa[a]pentalen-4-yl)-propan-1-one], the EC50 stood at 5 nM. On the same count and under the same terms, next, `Cc1cc(C)cc(NCC(=O)c2sc(C)c3c2C[C@@H]2[C@H]3C2(C)C)c1` [Example 157, 2-(3,5-Dimethyl-phenylamino)-1-((1aS,5aR)-1,1,2-trimethyl-1,1a,5,5a-tetrahydro-3-thia-cyclopropa[a]pentalen-4-yl)-ethanone]: 9 nM; `COc1cc(OC[C@@H](O)CO)ccc1CNC(=O)c1sc(C)c2c1C[C@@H]1[C@H]2C1(C)C` [Example 7, (1aS,5aR)-1,1,2-Trimethyl-1,1a,5,5a-tetrahydro-3-thia-cyclopropa[a]pentalene-4-carboxylic acid 4-((S)-2,3-dihydroxy-propoxy)-2-methoxy-benzylamide]: 183 nM; `CCc1sc(C(=O)CCc2cc(C)c(OCCCO)c(C)c2)c2c1[C@@H]1[C@H](C2)C1(C)C` [Example 139, 1-((1aR,5aS)-2-Ethyl-1,1-dimethyl-1,1a,5,5a-tetrahydro-3-thia-cyclopropa[a]pentalen-4-yl)-3-[4-(3-hydroxy-propoxy)-3,5-dimethyl-phenyl]-propan-1-one]: 4 nM.

The next assay deals with circulating lymphocytes. Put plainly: Assessment of in vivo efficacy: circulating lymphocytes after oral administration. Conditions: 3 h after oral administration of 30 mg/kg, normotensive male Wistar rats, compared to vehicle group; mean±SEM. On the procedure:
The efficacy of the compounds of Formula (I) is assessed by measuring the circulating lymphocytes after oral administration of 30 mg/kg of a compound of Formula (I) to normotensive male Wistar rats. The animals are housed in climate-controlled conditions with a 12 h-light/dark cycle, and have free access to normal rat chow and drinking water. […] Full blood is subjected to hematology using Advia Hematology system (Bayer Diagnostics, Zürich, Switzerland).
All data are presented as mean±SEM. Statistical analyses are performed by analysis of variance (ANOVA) using Statistica (StatSoft) and the Student-Newman-Keuls procedure for multiple comparisons. The null hypothesis is rejected when p<0.05.
With `Cc1cc(CCC(=O)c2sc(C)c3c2C[C@@H]2[C@H]3C2(C)C)cc(C)c1OC[C@@H](O)CO` [Example 51, 3-[4-((S)-2,3-Dihydroxy-propoxy)-3,5-dimethyl-phenyl]-1-((1aS,5aR)-1,1,2-trimethyl-1,1a,5,5a-tetrahydro-3-thia-cyclopropa[a]pentalen-4-yl)-propan-1-one], the Lymphocyte counts is listed as −44 ± 4%.

Regarding `COc1cc(OCC(C)O)ccc1CNC(=O)c1sc(C)c2c1C[C@@H]1[C@H]2C1(C)C` (mixture of isomers) [Example 24, (1aS,5aR)-1,1,2-trimethyl-1,1a,5,5a-tetrahydro-3-thia-cyclopropa[a]pentalene-4-carboxylic acid 4-((R/S)-2-hydroxy-propoxy)-2-methoxy-benzylamide], the Lymphocyte counts is given as −40 ± 4%. The same measure, in the same setting: next, `Cc1sc(C(=O)CCc2ccc(OC[C@@H](O)CO)c(Cl)c2)c2c1[C@H]1[C@@H](C2)C1(C)C` [Example 75, 3-[3-Chloro-4-((S)-2,3-dihydroxy-propoxy)-phenyl]-1-((1aS,5aR)-1,1,2-trimethyl-1,1a,5,5a-tetrahydro-3-thia-cyclopropa[a]pentalen-4-yl)-propan-1-one]: −57 ± 5%. With `COc1cc(OC[C@@H](O)CO)ccc1CNC(=O)c1sc(C)c2c1C[C@@H]1[C@H]2C1(C)C` [Example 7, (1aS,5aR)-1,1,2-Trimethyl-1,1a,5,5a-tetrahydro-3-thia-cyclopropa[a]pentalene-4-carboxylic acid 4-((S)-2,3-dihydroxy-propoxy)-2-methoxy-benzylamide], the Lymphocyte counts is given as −46 ± 3%.

Turning to `Cc1cc(CCC(=O)c2sc(C)c3c2C[C@@H]2[C@H]3C2(C)C)ccc1OC[C@@H](O)CO` [Example 86, 3-[4-((S)-2,3-Dihydroxy-propoxy)-3-methyl-phenyl]-1-((1aS,5aR)-1,1,2-trimethyl-1,1a,5,5a-tetrahydro-3-thia-cyclopropa[a]pentalen-4-yl)-propan-1-one], the Lymphocyte counts is on record as −47 ± 4%.
